The subject of experiment [1] is ABUTH. Briefly: Post-emergence action against ABUTH. The format is in vivo, Abutilon theophrasti. The conditions noted are these: post-emergence, dosage 80 g/ha, visual assessment about 3 weeks after treatment vs untreated controls. Put shortly: (§1)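 Post-emergence foliar spray on greenhouse plants at the one-leaf stage, using wettable-powder or emulsion-concentrate formulations in water (600 to […], plus 0.2% wetting agent). Damage scored by eye roughly 3 weeks later against untreated plants: 0% = like control, 100% = dead.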

Experiment [2] relates to SETVI. Briefly: Pre-emergence action against SETVI. The conditions noted are these: pre-emergence, dosage 320 g/ha, scored visually after 3 weeks vs untreated controls. The experiment is classed as in vivo, Setaria viridis. Put shortly: (§2)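 Seeds sown in sandy loam in wood-fiber pots and covered with soil. Greenhouse growth; visual damage scored after 3 weeks versus untreated controls (100% = dead, 0% = like control).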

In experiment [3] the test system is VIOTR. Briefly: Post-emergence action against VIOTR. The experiment is classed as in vivo, Viola tricolor. The conditions noted are these: post-emergence, dosage 80 g/ha. Put shortly:
as §1

Experiment [4] concerns PHBPU. The experiment can be described thus: Post-emergence action against PHBPU. The format is in vivo, Pharbitis purpurea. The conditions noted are these: post-emergence, dosage 80 g/ha. Put shortly:
as §1

Experiment [5] concerns CYPES. Briefly: Pre-emergence action against CYPES. The experiment is classed as in vivo, Cyperus esculentus. The conditions noted are these: pre-emergence, dosage 320 g/ha, scored visually after 3 weeks vs untreated controls. Put shortly:
as §2

Experiment [6] deals with AMARE. Briefly: Pre-emergence action against AMARE. The format is in vivo, Amaranthus retroflexus. The conditions noted are these: pre-emergence, dosage 320 g/ha, scored visually after 3 weeks vs untreated controls. Put shortly: as §2
In experiment [7] the test system is POLCO. The experiment can be described thus: Post-emergence action against POLCO. The conditions noted are these: post-emergence, dosage 80 g/ha. The format is in vivo, Polygonum convolvulus. The protocol: (§3) Seeds of monocotyledonous and dicotyledonous weed and crop plants are laid out in sandy loam soil in wood-fiber pots, covered with soil and cultivated in a greenhouse under good growth conditions. 2 to 3 weeks after sowing, the test plants are treated at the one-leaf stage. The compounds of the invention, formulated in the form of wettable powders (WP) or as emulsion concentrates (EC), are then sprayed onto the green parts of the plants in the form of an aqueous suspension or emulsion at a water application rate equating to […], with addition of 0.2% wetting agent. After the test plants have been left to stand in the greenhouse under optimal growth conditions for about 3 weeks, the action of the preparations is assessed visually in comparison to untreated controls (herbicidal action in percent (%): 100% activity=the plants have died, 0% activity=like control plants). […] At the same time, inventive compounds leave Gramineae crops such as barley, wheat, rye, millet/Sorghum, corn or rice virtually undamaged when applied post-emergence, even at high active ingredient dosages. In addition, some substances are also harmless to dicotyledonous crops such as soya, cotton, oilseed rape, sugar beet or potatoes. Some of the compounds according to the invention have high selectivity and are therefore suitable for controlling unwanted vegetation in agricultural crops by the post-emergence method. The data of Tables B18 to B34 below illustrate, in an exemplary manner, the […] herbicidal action of the compounds according to the invention, the herbicidal activity being stated in percent.

Experiment [8] concerns AMARE. The experiment can be described thus: Post-emergence action against AMARE. The conditions noted are these: post-emergence, dosage 80 g/ha, visual assessment about 3 weeks after treatment vs untreated controls. The experiment is classed as in vivo, Amaranthus retroflexus. In a few lines:
as §1

Experiment [9] deals with ABUTH. Briefly: Pre-emergence action against ABUTH. The conditions noted are these: pre-emergence, dosage 320 g/ha, scored visually after 3 weeks vs untreated controls. The format is in vivo, Abutilon theophrasti. In a few lines:
as §2

Experiment [10] relates to ALOMY. Briefly: Pre-emergence action against ALOMY. The format is in vivo, Alopecurus myosuroides. The conditions noted are these: dosage 320 g/ha; pre-emergence; scored visually after 3 weeks vs untreated controls; 100% = plants have died, 0% = like control plants. Put shortly:
as §2

For experiment [11], the system named is SETVI. Briefly: Post-emergence action against SETVI. The format is in vivo, Setaria viridis. The conditions noted are these: post-emergence, dosage 80 g/ha, visual assessment about 3 weeks after treatment vs untreated controls. Put shortly: as §1
Experiment [12] relates to MATIN. Briefly: Pre-emergence action against MATIN. The experiment is classed as in vivo, Matricaria inodora. The conditions noted are these: Dosage 320 g/ha, pre-emergence. In a few lines:
as §2

Experiment [13] deals with VIOTR. The experiment can be described thus: Pre-emergence action against VIOTR. The format is in vivo, Viola tricolor. The conditions noted are these: Dosage 320 g/ha, pre-emergence. In a few lines:
as §2

The subject of experiment [14] is STEME. The experiment can be described thus: Pre-emergence action against STEME. The conditions noted are these: Dosage 320 g/ha, pre-emergence. The experiment is classed as in vivo, Stellaria media. Put shortly: as §2
In experiment [15] the test system is STEME. Briefly: Post-emergence action against STEME. The format is in vivo, Stellaria media. The conditions noted are these: post-emergence, dosage 80 g/ha. In a few lines:
as §1

Experiment [16] deals with ECHCG. The experiment can be described thus: Post-emergence action against ECHCG. The format is in vivo, Echinochloa crus-galli. The conditions noted are these: post-emergence, dosage 80 g/ha, visual assessment about 3 weeks after treatment vs untreated controls. In a few lines: as §1
For experiment [17], the system named is POLCO. The experiment can be described thus: Pre-emergence action against POLCO. The format is in vivo, Polygonum convolvulus. The conditions noted are these: Dosage 320 g/ha, pre-emergence. In a few lines: as §2
The subject of experiment [18] is ECHCG. The experiment can be described thus: Pre-emergence action against ECHCG. The format is in vivo, Echinochloa crus-galli. The conditions noted are these: pre-emergence, dosage 320 g/ha, scored visually after 3 weeks vs untreated controls. In a few lines:
as §2

Experiment [19] has as its system MATIN. Briefly: Post-emergence action against MATIN. The conditions noted are these: post-emergence, dosage 80 g/ha, visual assessment about 3 weeks after treatment vs untreated controls. The experiment is classed as in vivo, Matricaria inodora. In a few lines: as §1
For experiment [20], the system named is CYPES. The experiment can be described thus: Post-emergence action against CYPES. The conditions noted are these: post-emergence, dosage 80 g/ha, visual assessment about 3 weeks after treatment vs untreated controls. The format is in vivo, Cyperus esculentus. In a few lines: as §1
Experiment [21] has as its system PHBPU. Briefly: Pre-emergence action against PHBPU. The format is in vivo, Pharbitis purpurea. The conditions noted are these: Dosage 320 g/ha, pre-emergence. In a few lines: as §2
The subject of experiment [22] is VERPE. Briefly: Pre-emergence action against VERPE. The experiment is classed as in vivo, Veronica persica. The conditions noted are these: Dosage 320 g/ha, pre-emergence. Put shortly:
as §2

The subject of experiment [23] is VERPE. Briefly: Post-emergence action against VERPE. The conditions noted are these: dosage 80 g/ha. The experiment is classed as in vivo, Veronica persica. Put shortly: as §1
Experiment [24] has as its system AVEFA. Briefly: Post-emergence action against AVEFA. The experiment is classed as in vivo, Avena fatua. The conditions noted are these: post-emergence, dosage 80 g/ha, visual assessment about 3 weeks after treatment vs untreated controls. How it is done: as §3
Experiment [25] relates to AVEFA. Briefly: Pre-emergence action against AVEFA. The format is in vivo, Avena fatua. The conditions noted are these: dosage 320 g/ha, scored visually after 3 weeks vs untreated controls. Put shortly: as §2

Regarding `CCn1nnnc1NC(=O)c1ccc(C)c(C(C)=O)c1C` [2-1], in experiment [1], the “Post-emergence action against ABUTH (herbicidal action in percent)” value was found to be 80%. The “SETVI (Table B8, pre-emergence herbicidal activity)” value in experiment [2] is reported as 90%. For the same compound, in experiment [3], the “Post-emergence action against VIOTR” value worked out at 100. Further, in [4], the “Post-emergence action against PHBPU” value is given as 90. The “Pre-emergence action against CYPES (herbicidal activity)” value in experiment [5] is given as 80%. In addition, in experiment [6], the “Pre-emergence action against AMARE (herbicidal activity)” value stood at 100%. For the same compound, the “Post-emergence action against POLCO” value in experiment [7] stood at 100. Further, in [8], the “Post-emergence action against AMARE (herbicidal action in percent)” value is reported as 100%. Moreover, the “Pre-emergence action against ABUTH (herbicidal activity)” value in experiment [9] was found to be 90%. Further, in [10], the “Pre-emergence action against ALOMY (herbicidal activity in percent)” value was 90%. Moreover, the “Post-emergence action against SETVI (herbicidal action in percent)” value in experiment [11] amounted to 80%. Further, the “Pre-emergence action against MATIN” value in experiment [12] is 90%. The “Pre-emergence action against VIOTR” value in experiment [13] is recorded as 100%. The “Pre-emergence action against STEME” value in experiment [14] is given as 90%. The “Post-emergence action against STEME” value in experiment [15] worked out at 80. Also, in experiment [16], the “Post-emergence action against ECHCG (herbicidal action in percent)” value was 100%. Further, the “Pre-emergence action against POLCO” value in experiment [17] was determined as 90%. In addition, in experiment [18], the “Pre-emergence action against ECHCG (herbicidal activity)” value is reported as 90%. In [19], the “Post-emergence action against MATIN (herbicidal action in percent)” value was determined as 90%.

Regarding `CCn1nnnc1NC(=O)c1ccc(S(C)(=O)=O)c(C(C)=O)c1Cl` [2-127], the “Post-emergence action against ABUTH (herbicidal action in percent)” value in experiment [1] was found to be 100%. In addition, in experiment [2], the “SETVI (Table B8, pre-emergence herbicidal activity)” value is reported as 90%. For the same compound, the “Post-emergence action against CYPES (herbicidal action in percent)” value in experiment [20] is given as 90%. Also, the “Pre-emergence action against PHBPU” value in [21] is 90%. For the same compound, the “Post-emergence action against VIOTR” value in experiment [3] is listed as 100. For the same compound, the “Post-emergence action against PHBPU” value in experiment [4] was 100. Further, the “Pre-emergence action against CYPES (herbicidal activity)” value in [5] is given as 90%. In addition, in experiment [22], the “Pre-emergence action against VERPE” value is 100%. In addition, the “Pre-emergence action against AMARE (herbicidal activity)” value in experiment [6] was found to be 100%. In addition, the “Post-emergence action against VERPE” value in [23] came out at 100. For the same compound, in experiment [8], the “Post-emergence action against AMARE (herbicidal action in percent)” value worked out at 100%. For the same compound, in experiment [9], the “Pre-emergence action against ABUTH (herbicidal activity)” value was 100%. Moreover, the “Post-emergence action against AVEFA (herbicidal action in percent)” value in experiment [24] stood at 90%. The “Post-emergence action against SETVI (herbicidal action in percent)” value in experiment [11] worked out at 90%. Also, the “Pre-emergence action against MATIN” value in experiment [12] was 100%. Moreover, in [13], the “Pre-emergence action against VIOTR” value is given as 100%. Further, the “Pre-emergence action against STEME” value in [14] worked out at 90%. In addition, the “Post-emergence action against STEME” value in [15] is 100. Besides, the “Post-emergence action against ECHCG (herbicidal action in percent)” value in [16] was found to be 100%. In experiment [25], the “Pre-emergence action against AVEFA (herbicidal activity)” value was found to be 90%. The “Pre-emergence action against ECHCG (herbicidal activity)” value in experiment [18] amounted to 100%. The “Post-emergence action against MATIN (herbicidal action in percent)” value in experiment [19] is 90%.
